The assay deals with T1, human mGluR2 receptor (Homo sapiens, UniProt Q14416).
T1 construct: expressed in transfected cells; host or cells: CHO cells (membranes)
Description: [35S]GTPγS binding assay, mGluR2 positive allosteric modulation (PAM). It is filed as biochemical. The conditions noted are these: membranes from CHO cells transfected with human mGluR2, in presence of glutamate at EC20; for EC50: -log EC50 with EC50 in M, read-out: GTPγS - hmGluR2 PAM pEC50 (converted); for GTPγS - hmGluR2 PAM Emax / Emax: maximal % effect relative to the control glutamate response; for Emax: read-out: GTPγS - hmGluR2 PAM Emax. Here is the method: The [^35S]GTPγS binding assay is a functional membrane-based assay used to study G-protein coupled receptor (GPCR) function whereby incorporation of a non-hydrolysable form of GTP, [^35S]GTPγS (guanosine 5′-triphosphate, labelled with […] ^35S), is measured. The G-protein α subunit catalyzes the exchange of guanosine 5′-diphosphate (GDP) by guanosine triphosphate (GTP) and on activation of the GPCR by an agonist, [^35S]GTPγS, becomes incorporated and cannot be cleaved to continue the exchange cycle (Harper (1998) Current Protocols in Pharmacology 2.6.1-10, John Wiley & Sons, Inc.). […] Here we describe the use of the [^35S]GTPγS binding assay using membranes from cells transfected with the human mGluR2 receptor and adapted from Schaffhauser et al. ((2003) Molecular Pharmacology 4:798-810) for the detection of the positive allosteric modulation (PAM) properties of the compounds of this invention.
CHO-cells were cultured to pre-confluence and stimulated with 5 mM butyrate for 24 h. Cells were then collected by scraping in PBS and cell suspension was centrifuged (10 min at 4000 RPM in benchtop centrifuge). Supernatant was discarded and pellet gently resuspended in 50 mM Tris-HCl, pH 7.4 by mixing with a vortex and pipetting up and down. The suspension was centrifuged at 16,000 RPM (Sorvall RC-5C plus rotor SS-34) for 10 minutes and the supernatant discarded. The pellet was homogenized in 5 mM Tris-HCl, pH 7.4 using an ultra-turrax homogenizer and centrifuged again (18,000 RPM, 20 min, 4° C.). The final pellet was resuspended in 50 mM Tris-HCl, pH 7.4 and stored at −80° C. in appropriate aliquots before use. Protein concentration was determined by the Bradford method (Bio-Rad, USA) with bovine serum albumin as standard.
Measurement of mGluR2 positive allosteric modulatory activity of test compounds was performed as follows. Test compounds and glutamate were diluted in assay buffer containing 10 mM HEPES acid, 10 mM HEPES salt, pH 7.4, 100 mM NaCl, 3 mM MgCl2 and 10 μM GDP. Human mGlu2 receptor-containing membranes were thawed on ice and diluted in assay buffer supplemented with 14 μg/ml saponin. Membranes were pre-incubated with compound alone or together with a predefined (˜EC20) concentration of glutamate (PAM assay) for 30 min at 30° C. After addition of [^35S]GTPγS (f.c. 0.1 nM), assay mixtures were shaken briefly and further incubated to allow [^35S]GTPγS incorporation on activation (30 minutes, 30° C.). Final assay mixtures contained 7 μg of membrane protein in 10 mM HEPES acid, 10 mM HEPES salt, pH 7.4, 100 mM NaCl, 3 mM MgCl2, 10 μM GDP and 10 μg/ml saponin. Total reaction volume was 200 μl. Reactions were terminated by rapid filtration through Unifilter-96 GF/B plates (Perkin Elmer, Mass., USA) using a 96-well filtermate universal harvester. Filters were washed 6 times with ice-cold 10 mM NaH2PO4/10 mM Na2HPO4, pH 7.4. Filters were then air-dried, and 40 μl of liquid scintillation cocktail (Microscint-O) was added to each well. Membrane-bound radioactivity was counted in a Microplate Scintillation and Luminescence Counter from Perkin Elmer.
The concentration-response curves of representative compounds of the present invention-obtained in the presence of EC20 of mGluR2 agonist glutamate to determine positive allosteric modulation (PAM)-were generated using the Lexis software interface (developed at J&J).
Background: GTPγS is a poorly hydrolysed GTP analogue; its binding reports G protein activation.

Where a name gives a salt, the structure may show the parent alone.

T1 sequence (Q14416 19-872): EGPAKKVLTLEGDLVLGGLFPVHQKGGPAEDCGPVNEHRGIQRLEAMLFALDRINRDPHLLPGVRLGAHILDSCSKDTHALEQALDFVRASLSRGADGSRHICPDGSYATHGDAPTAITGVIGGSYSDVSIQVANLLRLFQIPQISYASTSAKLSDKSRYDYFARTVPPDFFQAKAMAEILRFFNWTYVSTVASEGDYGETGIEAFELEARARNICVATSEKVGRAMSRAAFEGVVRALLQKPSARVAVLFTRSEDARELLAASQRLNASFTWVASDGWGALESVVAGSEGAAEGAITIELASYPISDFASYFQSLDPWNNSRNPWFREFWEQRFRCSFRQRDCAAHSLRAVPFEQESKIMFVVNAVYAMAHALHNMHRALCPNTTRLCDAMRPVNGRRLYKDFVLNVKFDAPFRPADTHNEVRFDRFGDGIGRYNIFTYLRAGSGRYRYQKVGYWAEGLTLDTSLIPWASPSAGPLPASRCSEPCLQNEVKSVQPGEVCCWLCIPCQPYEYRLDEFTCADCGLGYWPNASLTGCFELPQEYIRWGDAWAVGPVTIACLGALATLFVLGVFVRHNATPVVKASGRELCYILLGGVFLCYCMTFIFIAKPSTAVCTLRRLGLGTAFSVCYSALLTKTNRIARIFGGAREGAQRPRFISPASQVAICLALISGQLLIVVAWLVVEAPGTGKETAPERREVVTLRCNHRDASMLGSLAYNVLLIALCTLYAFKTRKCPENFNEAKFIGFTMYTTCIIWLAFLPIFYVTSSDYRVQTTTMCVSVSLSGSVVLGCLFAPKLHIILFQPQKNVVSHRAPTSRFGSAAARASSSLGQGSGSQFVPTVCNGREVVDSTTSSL

For the compound `CC1(c2ccccc2)CN(Cc2ccn3c(CC4CC4)nnc3c2C(F)(F)F)CCO1` (single isomer, unassigned) [Compound 8b, 3-(cyclopropylmethyl)-7-[(2-methyl-2-phenyl-4-morpholinyl)methyl]-8-(trifluoromethyl)-1,2,4-triazolo[4,3-a]pyridine (*S) hydrochloride hydrate (.1.3HCl.1.6H2O)], the EC50 is 8.32 nM and the “GTPγS - hmGluR2 PAM Emax” value is given as 243%.

For orientation: Emax means the maximal effect, on the per cent scale that the assay sets. For `Cc1nnc2c(C(F)(F)F)c(CN3CCCC(C)(c4ccccc4)C3)ccn12` (single isomer, unassigned) [Compound 10, 3-Methyl-7-[(3-methyl-3-phenyl-1-piperidinyl)methyl]-8-(trifluoromethyl)-1,2,4-triazolo[4,3-a]pyridine (*S)], the Emax amounted to 193%.

As to `Cc1nnc2c(C(F)(F)F)c(CN3CCCC(C)(c4ccccc4)C3)ccn12` (single isomer, unassigned) [Compound 11, 3-Methyl-7-[(3-methyl-3-phenyl-1-piperidinyl)methyl]-8-(trifluoromethyl)-1,2,4-triazolo[4,3-a]pyridine (*R)], the EC50 was 53.7 nM and the Emax amounted to 268%.

For the compound `CC1(c2ccccc2)CCN(Cc2ccn3c(CC4CC4)nnc3c2C(F)(F)F)C1` (single isomer, unassigned) [Compound 13, 3-(cyclopropylmethyl)-7-[(3-methyl-3-phenyl-1-pyrrolidinyl)methyl]-8-(trifluoromethyl)-1,2,4-triazolo[4,3-a]pyridine (*R)], the EC50 is 12.6 nM and the “GTPγS - hmGluR2 PAM Emax” value came to 248%.

In the case of `CC1(c2ccccc2)CCN(Cc2ccn3c(CC4CC4)nnc3c2C(F)(F)F)C1` (single isomer, unassigned) [Compound 14, 3-(cyclopropylmethyl)-7-[(3-methyl-3-phenyl-1-pyrrolidinyl)methyl]-8-(trifluoromethyl)-1,2,4-triazolo[4,3-a]pyridine (*S)], the EC50 is 15.1 nM and the “GTPγS - hmGluR2 PAM Emax” value was 286%.

For the compound `Fc1ccc(C2CN(Cc3ccn4c(CC5CC5)nnc4c3C(F)(F)F)CCO2)c(F)c1` (single isomer, unassigned) [Compound 17, 3-(Cyclopropylmethyl)-7-{[(2*R)-2-(2,4-difluorophenyl)morpholin-4-yl]methyl}-8-(trifluoromethyl)[1,2,4]triazolo[4,3-a]pyridine], the EC50 was 977 nM and the Emax came out at 259%.

For `Fc1ccc(C2CN(Cc3ccn4c(CC5CC5)nnc4c3C(F)(F)F)CCO2)c(F)c1` (single isomer, unassigned) [Compound 18, 3-(Cyclopropylmethyl)-7-{[(2*S)-2-(2,4-difluorophenyl)morpholin-4-yl]methyl}-8-(trifluoromethyl)[1,2,4]triazolo[4,3-a]pyridine], the EC50 is 51.3 nM and the “GTPγS - hmGluR2 PAM Emax” value came out at 242%.

`Fc1ccc(C2CN(Cc3ccn4c(CC5CC5)nnc4c3C(F)(F)F)CCN2)c(F)c1` (single isomer, unassigned) [Compound 19a, 3-(Cyclopropylmethyl)-7-{[(3*R)-3-(2,4-difluorophenyl)piperazin-1-yl]methyl}-8-(trifluoromethyl)[1,2,4]triazolo[4,3-a]pyridine]: the EC50 was 912 nM and the “GTPγS - hmGluR2 PAM Emax” value came to 320%.

For `Fc1ccc(C2CN(Cc3ccn4c(CC5CC5)nnc4c3C(F)(F)F)CCN2)c(F)c1` (single isomer, unassigned) [Compound 19b, 3-(Cyclopropylmethyl)-7-{[(3*S)-3-(2,4-difluorophenyl)piperazin-1-yl]methyl}-8-(trifluoromethyl)[1,2,4]triazolo[4,3-a]pyridine], the EC50 was 468 nM and the “GTPγS - hmGluR2 PAM Emax” value worked out at 279%.

Take `FC(F)(F)c1c(CN2CCO[C@H](c3ccccc3)C2)ccn2c(CC3CC3)nnc12` [Compound 2, 3-(Cyclopropylmethyl)-7-[[(2R)-2-phenyl-4-morpholinyl]methyl]-8-(trifluoromethyl)-1,2,4-triazolo[4,3-a]pyridine]: the EC50 is 871 nM and the Emax was 267%.

Take `FC(F)(F)c1c(CN2CCO[C@@H](c3ccccc3)C2)ccn2c(CC3CC3)nnc12` [Compound 4, 3-(Cyclopropylmethyl)-7-[[(2S)-2-phenyl-4-morpholinyl]methyl]-8-(trifluoromethyl)-1,2,4-triazolo[4,3-c]pyridine]: the EC50 is 324 nM and the Emax is 294%.

Source of the values: patent publication US8993591B2, “1,2,4-triazolo[4,3-a] pyridine derivatives and their use as positive allosteric modulators of MGLUR2 receptors” (Janssen Pharmaceuticals, Inc., priority 2010, dated 2015).
